Measured values as given in patent US7071293B1, “Alpha helical peptides with broad spectrum antimicrobial activity that are insensitive to salt” (priority 1999, dated 2006).
Read-outs that look alike come from different tables or passages of the source. Ends that are not written are not given here.

Assays:
P. aeruginosa PAO1 [1] = assay: Relative time for killing (luminescence measured at intervals); format: cell-based; conditions: peptide at ten times its EC50 (SMAP29X-18D 15.7 X, SMAP29X-14A 17.4 X), 25 mM ionic strength
P. aeruginosa PAO1 [2] = conditions: avg ± sem
E. coli DH5α = conditions: for EC50: DH5α; for EC50 E. coli DH5α: ionic strength 25 mM, avg ± sem
E. coli ML-35p = conditions: for MIC E. coli [NaCl] High: high salt underlay (10 mM sodium phosphate buffer +100 mM NaCl, pH 7.4); for MIC E. coli [NaCl] High / MIC E. coli [NaCl] Low: Table 13; for MIC E. coli [NaCl] Low: low salt underlay (10 mM sodium phosphate buffer, pH 7.4); for E. coli ML-35p MIC, 0 mM NaCl: underlay 0 mM NaCl; for E. coli ML-35p MIC, 0 mM NaCl / E. coli ML-35p MIC, 175 mM NaCl: Table 15; for E. coli ML-35p MIC, 175 mM NaCl: underlay 175 mM NaCl
P. aeruginosa MR 3007 = conditions: for MIC P. aeruginosa [NaCl] High / MIC P. aeruginosa [NaCl] Low: MR 3007, pH 7.4
S. aureus 930918-3 = conditions: for MIC S. aureus [NaCl] High / MIC S. aureus [NaCl] Low: 930918-3, pH 7.4
MRSA ATCC 33591 = conditions: for MIC MRSA [NaCl] High / MIC MRSA [NaCl] Low: ATCC 33591, pH 7.4
B. cepacia ATCC 25416 = assay: Two stage radial diffusion assay (MIC); format: cell-based; design: unit not given here; conditions: underlay 0 mM NaCl
N. gonorrhoeae = assay: Two stage radial diffusion assay (MIC); format: cell-based; design: unit not given here; conditions: done only at 100 mM NaCl; for N. gonorrhoeae F 62 (serum-sensitive): strain F 62 (serum-sensitive); for N. gonorrhoeae FA 19 (serum-resistant): strain FA 19 (serum-resistant)
L. monocytogenes EGD = assay: Two stage radial diffusion assay (MIC); format: cell-based; design: unit not given here; conditions: underlay 0 mM NaCl

Substance	Half-time of Killing (min. avg. ± sem) (P. aeruginosa PAO1 [1])	EC50 P. aeruginosa PAO1 (P. aeruginosa PAO1 [2]; ionic strength 25 mM)	EC50 P. aeruginosa PAO1 (P. aeruginosa PAO1 [2]; ionic strength 175 mM)	EC50 (E. coli DH5α)	EC50 E. coli DH5α (E. coli DH5α)	MIC E. coli [NaCl] High (E. coli ML-35p)	MIC E. coli [NaCl] Low (E. coli ML-35p)	MIC P. aeruginosa [NaCl] High (P. aeruginosa MR 3007)	MIC P. aeruginosa [NaCl] Low (P. aeruginosa MR 3007)	MIC S. aureus [NaCl] High (S. aureus 930918-3)	MIC S. aureus [NaCl] Low (S. aureus 930918-3)	MIC MRSA [NaCl] High (MRSA ATCC 33591)	B. cepacia ATCC 25416 in underlays of low, normal and high salinity, 0 mM NaCl (B. cepacia ATCC 25416)	N. gonorrhoeae F 62 (serum-sensitive) (N. gonorrhoeae)	N. gonorrhoeae FA 19 (serum-resistant) (N. gonorrhoeae)	L. monocytogenes in underlays of low, normal and high salinity, 0 mM NaCl (L. monocytogenes EGD)	E. coli ML-35p MIC, 0 mM NaCl (E. coli ML-35p)	P. aeruginosa MR-3007 MIC, 0 mM NaCl (P. aeruginosa MR 3007)	S. aureus 930918-3 MIC, 0 mM NaCl (S. aureus 930918-3)	MRSA ATCC 33591 MIC, 0 mM NaCl (MRSA ATCC 33591)	also measured
GLRKRLRKFRNKIKEKLKKIG [CAP18-21a]	9.2 ± 3.4 min	0.58 ± 0.09 µg/mL	0.54 ± 0.10 µg/mL	190 ± 10 nM	0.48 ± 0.03 µg/mL	0.4 µg/mL	2.3 µg/mL	0.9 µg/mL	0.7 µg/mL	2.2 µg/mL	1.8 µg/mL	>250 µg/mL									MIC MRSA [NaCl] Low (MRSA ATCC 33591): 19.4 µg/mL
GLRKRLRKFRNKIKEKLKKIGQKIQGLLPKLAPRTDY [CAP 18]	4.0 ± 1.4 min	0.98 ± 0.24 µg/mL	0.50 ± 0.10 µg/mL	150 ± 20 nM	0.69 ± 0.08 µg/mL	0.4 µg/mL	0.2 µg/mL	1.6 µg/mL	0.2 µg/mL	2.8 µg/mL	1.8 µg/mL	6.1 µg/mL									MIC MRSA [NaCl] Low (MRSA ATCC 33591): 8.2 µg/mL
GLRKRLRKFRNKIKEKLKKIGQKIQGLLPKLAPRTDY [Peptide 18]													>79.1	0.7	0.6	0.6	2.8 µg/mL	2.1 µg/mL	1.8 µg/mL	8.2 µg/mL	E. coli DH-5α MIC, 0 mM NaCl (E. coli DH-5α; DH-5α): 0.84 µg/mL; P. aeruginosa PA-01 MIC, 0 mM NaCl (P. aeruginosa PA-01): 0.88 µg/mL
KIKEKLKKIGQKIQG [Peptide 25]													>250	>79.1	>250	>250	1.6 µg/mL	8.7 µg/mL	>250 µg/mL	>250 µg/mL	
KIKEKLKKIGQKIQGLL [Peptide 26]													>250	>79.1	>250	5.7	0.4 µg/mL	1.0 µg/mL	>250 µg/mL	>250 µg/mL	
KNLRRIIRKIIHIIKKYG [Peptide 8]													20.2	0.5	0.2	2.1	0.45 ± 0.10 µg/mL	0.67 ± 0.12 µg/mL	0.84 ± 0.14 µg/mL	0.77 ± 0.04 µg/mL	E. coli ML-35p MIC, 175 mM NaCl (E. coli ML-35p): 0.41 ± 0.06 µg/mL; P. aeruginosa MR-3007 MIC, 175 mM NaCl (P. aeruginosa MR 3007): 0.59 ± 0.05 µg/mL; S. aureus 930918-3 MIC, 175 mM NaCl (S. aureus 930918-3): 0.86 ± 0.06 µg/mL; MRSA ATCC 33591 MIC, 175 mM NaCl (MRSA ATCC 33591): 0.89 ± 0.05 µg/mL; E. coli DH-5α MIC, 0 mM NaCl (E. coli DH-5α; DH-5α): 0.26 ± 0.05 µg/mL; E. coli DH-5α MIC, 175 mM NaCl (E. coli DH-5α; DH-5α): 0.35 ± 0.09 µg/mL; P. aeruginosa PA-01 MIC, 0 mM NaCl (P. aeruginosa PA-01): 0.83 ± 0.05 µg/mL; P. aeruginosa PA-01 MIC, 175 mM NaCl (P. aeruginosa PA-01): 0.82 ± 0.05 µg/mL
KNLRRIIRKIIHIIKKYGPTILRIIRIIG-NH2 [Peptide 28]													17.0	0.1	0.1	0.4	0.16 ± 0.03 µg/mL	0.34 ± 0.22 µg/mL	0.55 ± 0.17 µg/mL	0.32 ± 0.04 µg/mL	E. coli ML-35p MIC, 175 mM NaCl (E. coli ML-35p): 0.58 ± 0.12 µg/mL; P. aeruginosa MR-3007 MIC, 175 mM NaCl (P. aeruginosa MR 3007): 0.49 ± 0.06 µg/mL; S. aureus 930918-3 MIC, 175 mM NaCl (S. aureus 930918-3): 1.14 ± 0.23 µg/mL; MRSA ATCC 33591 MIC, 175 mM NaCl (MRSA ATCC 33591): 1.57 ± 0.30 µg/mL; E. coli DH-5α MIC, 175 mM NaCl (E. coli DH-5α; DH-5α): 0.40 ± 0.09 µg/mL; E. coli DH-5α MIC, 0 mM NaCl (E. coli DH-5α; underlay 0 mM NaCl): 0.0042 µg/mL; P. aeruginosa PA-01 MIC, 0 mM NaCl (P. aeruginosa PA-01): 0.53 ± 0.14 µg/mL; P. aeruginosa PA-01 MIC, 175 mM NaCl (P. aeruginosa PA-01): 1.17 ± 0.23 µg/mL
KRLRKFRNKIKEKLKKIG [CAP18-18]	19.5 ± 8.2 min	1.05 ± 0.37 µg/mL	1.59 ± 0.29 µg/mL	200 ± 30 nM	0.47 ± 0.06 µg/mL	1.5 µg/mL	2.8 µg/mL	3.2 µg/mL	2.1 µg/mL	29.0 µg/mL	9.7 µg/mL	>250 µg/mL									MIC MRSA [NaCl] Low (MRSA ATCC 33591): 14.9 µg/mL
KRLRKFRNKIKEKLKKIG [Peptide 20]													>250	>250	>250	2.3	2.3 µg/mL	2.9 µg/mL	9.7 µg/mL	14.9 µg/mL	
LRKFRNKIKEKLKKIGQKI [CAP18-19]	8.0 ± 1.6 min	1.65 ± 0.27 µg/mL	3.06 ± 0.36 µg/mL	960 ± 130 nM	2.27 ± 0.30 µg/mL	18.2 µg/mL	0.4 µg/mL	26.7 µg/mL	1.0 µg/mL	>79.1 µg/mL	6.0 µg/mL	>79.1 µg/mL									MIC MRSA [NaCl] Low (MRSA ATCC 33591): 4.5 µg/mL
LRKFRNKIKEKLKKIGQKI [Peptide 22]													>250	>79.1	>250	5.9	0.1 µg/mL	0.7 µg/mL	6.0 µg/mL	4.5 µg/mL	
LRKFRNKIKEKLKKIGQKIQG [Peptide 23]													>250	>79.1	>250	5.5	0.2 µg/mL	1.5 µg/mL	16.3 µg/mL	10.3 µg/mL	
LRRIIRKIIHIIKK-NH2 [Peptide 11]													>79.1	0.8	0.9	0.7	0.63 ± 0.05 µg/mL	0.92 ± 0.06 µg/mL	1.38 ± 0.21 µg/mL	4.42 ± 1.73 µg/mL	E. coli ML-35p MIC, 175 mM NaCl (E. coli ML-35p): 49.2 ± 15.2 µg/mL; P. aeruginosa MR-3007 MIC, 175 mM NaCl (P. aeruginosa MR 3007): 20.1 ± 6.9 µg/mL; S. aureus 930918-3 MIC, 175 mM NaCl (S. aureus 930918-3): 16.4 ± 5.1 µg/mL; MRSA ATCC 33591 MIC, 175 mM NaCl (MRSA ATCC 33591): >79.1 µg/mL; E. coli DH-5α MIC, 0 mM NaCl (E. coli DH-5α; DH-5α): 0.85 ± 0.04 µg/mL; E. coli DH-5α MIC, 175 mM NaCl (E. coli DH-5α; DH-5α): 5.92 ± 1.02 µg/mL; P. aeruginosa PA-01 MIC, 0 mM NaCl (P. aeruginosa PA-01): 0.96 ± 0.05 µg/mL; P. aeruginosa PA-01 MIC, 175 mM NaCl (P. aeruginosa PA-01): 6.51 ± 1.02 µg/mL
RKFRNKIKEKLKKIG [Peptide 24]													>250	>250	>250	24.1	9.7 µg/mL	5.1 µg/mL	19.5 µg/mL	>250 µg/mL	
RKRLRKFRNKIKEKLKKIGQKI [CAP18-22]	9.8 ± 2.5 min	1.38 ± 0.49 µg/mL	0.88 ± 0.12 µg/mL	520 ± 160 nM	1.47 ± 0.44 µg/mL	1.7 µg/mL	0.1 µg/mL	7.6 µg/mL	0.7 µg/mL	>79.1 µg/mL	7.9 µg/mL	>79.1 µg/mL									MIC MRSA [NaCl] Low (MRSA ATCC 33591): 8.1 µg/mL
RKRLRKFRNKIKEKLKKIGQKI [Peptide 21]													>250	22.0	>250	7.0	0.2 µg/mL	0.2 µg/mL	7.9 µg/mL	8.1 µg/mL	
